# According to publication PMC10808224, “Lsr2 acts as a cyclic di-GMP receptor that promotes keto-mycolic acid synthesis and biofilm formation in mycobacteria” (Nature Communications, 2024):
# Target: T1, Lsr2Msm (Mycolicibacterium smegmatis, UniProt A0R576)
# T1 construct: gene MSMEG_6092; recombinant, E. coli BL21 (DE3), modified pET28a, C-terminal His-tag, Ni-NTA purified
# Experiment: isothermal titration calorimetry
# Format: binding
smiles,measurement,value
Nc1nc2c(ncn2[C@@H]2O[C@@H]3CO[P@](=O)(O)O[C@H]4[C@@H](O)[C@H](n5cnc6c(=O)[nH]c(N)nc65)O[C@@H]4CO[P@](=O)(O)O[C@H]3[C@H]2O)c(=O)[nH]1 [c-di-GMP],Kd,96.4 nM
